{"source": "paper PMC7216583", "about": "(Parasites & Vectors, 2020)", "key": {"NaV1.8 channel": {"test_system": "NaV1.8 channel", "set-up": "method as in S-inhibitor catalog", "conditions": "vendor brief description; ref S-inhibitor catalog; cited from earlier work"}, "[1]": {"test_system": "Toxoplasma gondii RH-2F tachyzoites", "assay": "microbe, parasite or virus in culture", "conditions": "72 h"}, "in vitro": {"assay": "in vitro", "conditions": "human, Host viability (%) mean"}, "human c-Met": {"target": "human c-Met", "set-up": "method as in S-inhibitor catalog", "conditions": "vendor brief description; ref S-inhibitor catalog; cited from earlier work"}, "mouse c-Met": {"target": "mouse c-Met", "set-up": "method as in S-inhibitor catalog", "conditions": "vendor brief description; ref S-inhibitor catalog; cited from earlier work"}, "NAMPT": {"test_system": "NAMPT", "conditions": "read-out: IC50, NAMPT; vendor brief description; ref S-inhibitor catalog; cited from earlier work"}, "cIAP2": {"target": "cIAP2", "set-up": "method as in S-inhibitor catalog", "conditions": "vendor brief description; ref S-inhibitor catalog; cited from earlier work"}, "cIAP1": {"target": "cIAP1", "set-up": "method as in S-inhibitor catalog", "conditions": "vendor brief description; ref S-inhibitor catalog; cited from earlier work"}, "XIAP": {"target": "XIAP", "set-up": "method as in S-inhibitor catalog", "conditions": "vendor brief description; ref S-inhibitor catalog; cited from earlier work"}, "BRAFV600E": {"test_system": "BRAFV600E", "set-up": "method as in S-inhibitor catalog", "conditions": "vendor brief description; ref S-inhibitor catalog; cited from earlier work"}, "wild-type CRAF": {"test_system": "wild-type CRAF", "set-up": "method as in S-inhibitor catalog", "conditions": "vendor brief description; ref S-inhibitor catalog; cited from earlier work"}, "mutant CETP(C13S)": {"test_system": "mutant CETP(C13S)", "set-up": "method as in S-inhibitor catalog", "conditions": "vendor brief description; ref S-inhibitor catalog; cited from earlier work"}, "GSK-3β": {"test_system": "GSK-3β", "conditions": "read-out: IC50, GSK-3β; vendor brief description; ref S-inhibitor catalog; cited from earlier work"}, "GSK-3ɑ": {"test_system": "GSK-3ɑ", "conditions": "read-out: IC50, GSK-3ɑ; vendor brief description; ref S-inhibitor catalog; cited from earlier work"}, "CHO-mSGLT2": {"test_system": "CHO-mSGLT2", "set-up": "method as in S-inhibitor catalog", "conditions": "vendor brief description; ref S-inhibitor catalog; cited from earlier work"}, "CHO-hSGLT2": {"test_system": "CHO-hSGLT2", "set-up": "method as in S-inhibitor catalog", "conditions": "vendor brief description; ref S-inhibitor catalog; cited from earlier work"}, "CHO-rSGLT2": {"test_system": "CHO-rSGLT2", "set-up": "method as in S-inhibitor catalog", "conditions": "vendor brief description; ref S-inhibitor catalog; cited from earlier work"}, "PDGFRα": {"test_system": "PDGFRα", "set-up": "method as in S-inhibitor catalog", "conditions": "in PDGFRα over-expressed CHO cells; vendor brief description; ref S-inhibitor catalog; cited from earlier work"}, "c-Raf": {"test_system": "c-Raf", "set-up": "method as in vendor brief description", "conditions": "ref vendor brief description; cited from earlier work"}, "B-Raf": {"test_system": "B-Raf", "set-up": "method as in vendor brief description", "conditions": "ref vendor brief description; cited from earlier work"}, "B-RafV600E": {"test_system": "B-RafV600E", "set-up": "method as in vendor brief description", "conditions": "ref vendor brief description; cited from earlier work"}, "rhCETP": {"test_system": "rhCETP", "set-up": "method as in S-inhibitor catalog", "conditions": "vendor brief description; ref S-inhibitor catalog; cited from earlier work"}, "FPTase (N-ras)": {"target": "FPTase (N-ras)", "set-up": "method as in S-inhibitor catalog", "conditions": "vendor brief description; ref S-inhibitor catalog; cited from earlier work"}, "FPTase (K-ras-4B)": {"target": "FPTase (K-ras-4B)", "set-up": "method as in S-inhibitor catalog", "conditions": "vendor brief description; ref S-inhibitor catalog; cited from earlier work"}, "FPTase (H-ras)": {"target": "FPTase (H-ras)", "set-up": "method as in S-inhibitor catalog", "conditions": "vendor brief description; ref S-inhibitor catalog; cited from earlier work"}, "INR263K": {"test_system": "INR263K", "set-up": "method as in S-inhibitor catalog", "conditions": "vendor brief description; ref S-inhibitor catalog; cited from earlier work"}, "integrase (IN)": {"target": "integrase (IN)", "set-up": "method as in S-inhibitor catalog", "conditions": "vendor brief description; ref S-inhibitor catalog; cited from earlier work"}, "[2]": {"conditions": "read-out: Parasite inhibition (%) mean, preliminary screen of compound library, mean"}}, "note": "pIC50, pKi: −log10 of the molar value. Read-outs that look alike come from different tables or passages of the source."}
{"smiles": "COc1cc(NC(=O)c2ccc(-c3ccc(Cl)cc3)o2)cc(OC)c1", "note": "[A-803467]", "values": [{"measurement": "pIC50", "setting": "NaV1.8 channel", "value": 8.10}, {"measurement": "inhibition of growth at 5 µM", "setting": "[1]; [2]", "value": 0.3, "unit": "%"}]}
{"smiles": "COc1ccc2c(Oc3ccc(NC(=O)c4c(C)n(CC(C)(C)O)n(-c5ccccc5)c4=O)nc3)ccnc2c1", "note": "[AMG458]", "values": [{"measurement": "viability at 72 h", "setting": "in vitro", "value": 75.9, "unit": "%"}, {"measurement": "pKi", "setting": "human c-Met", "value": 8.92}, {"measurement": "pKi", "setting": "mouse c-Met", "value": 8.70}, {"measurement": "inhibition of growth at 5 µM", "setting": "[1]; [2]", "value": 86.6, "unit": "%"}]}
{"smiles": "O=C(/C=C/c1cccnc1)NCCCCC1CCN(C(=O)c2ccccc2)CC1", "note": "[APO866 (FK866)]", "values": [{"measurement": "pIC50", "setting": "NAMPT", "value": "[…]"}, {"measurement": "inhibition of growth at 5 µM", "setting": "[1]; [2]", "value": 10.4, "unit": "%"}]}
{"smiles": "CN[C@@H](C)C(=O)N[C@H]1CN(C(=O)CC(C)C)CC[C@H]2CC[C@@H](C(=O)NC(c3ccccc3)c3ccccc3)N2C1=O", "note": "[AT-406]", "values": [{"measurement": "pKi", "setting": "cIAP2", "value": 8.29}, {"measurement": "pKi", "setting": "cIAP1", "value": 8.72}, {"measurement": "pKi", "setting": "XIAP", "value": 7.18}, {"measurement": "inhibition of growth at 5 µM", "setting": "[1]; [2]", "value": 33.5, "unit": "%"}]}
{"smiles": "Cc1ccc(NC(=O)c2cccc(C(C)(C)C#N)c2)cc1Nc1ccc2ncn(C)c(=O)c2c1", "note": "[AZ628]", "values": [{"measurement": "pIC50", "setting": "BRAFV600E", "value": 7.47}, {"measurement": "inhibition of growth at 5 µM", "setting": "[1]; [2]", "value": 0.6, "unit": "%"}, {"measurement": "pIC50", "setting": "wild-type CRAF", "value": 7.54}]}
{"smiles": "COc1cc(F)c(C(C)C)cc1-c1ccc(C(F)(F)F)cc1CN1C(=O)O[C@H](c2cc(C(F)(F)F)cc(C(F)(F)F)c2)[C@H]1C", "note": "[Anacetrapib (MK-0859)]", "values": [{"measurement": "pIC50", "setting": "mutant CETP(C13S)", "value": 7.93}, {"measurement": "inhibition of growth at 5 µM", "setting": "[1]; [2]", "value": 22.1, "unit": "%"}]}
{"smiles": "Nc1nc(NCCNc2ncc(-n3ccnc3)c(-c3ccc(Cl)cc3Cl)n2)ccc1[N+](=O)[O-]", "note": "[CHIR-98014]", "values": [{"measurement": "pIC50", "setting": "GSK-3β", "value": 9.24}, {"measurement": "pIC50", "setting": "GSK-3ɑ", "value": 9.19}, {"measurement": "inhibition of growth at 5 µM", "setting": "[1]; read-out: Parasite inhibition (%) mean", "value": 52.4, "unit": "%"}]}
{"smiles": "Cc1ccc([C@@H]2O[C@H](CO)[C@@H](O)[C@H](O)[C@H]2O)cc1Cc1ccc(-c2ccc(F)cc2)s1", "note": "[Canagliflozin]", "values": [{"measurement": "pIC50", "setting": "CHO-mSGLT2", "value": 8.70}, {"measurement": "pIC50", "setting": "CHO-hSGLT2", "value": 8.36}, {"measurement": "inhibition of growth at 5 µM", "setting": "[1]; [2]", "value": 0.5, "unit": "%"}, {"measurement": "pIC50", "setting": "CHO-rSGLT2", "value": 8.43}]}
{"smiles": "CC1(COc2ccc3c(c2)ncn3-c2ccc3cccc(N4CCC(N)CC4)c3n2)COC1", "note": "[Crenolanib (CP-868596)]", "values": [{"measurement": "pIC50", "setting": "PDGFRα", "value": "[…]"}, {"measurement": "inhibition of growth at 5 µM", "setting": "[1]; [2]", "value": 0.2, "unit": "%"}]}
{"smiles": "CC(C)(C)c1nc(-c2cccc(NS(=O)(=O)c3c(F)cccc3F)c2F)c(-c2ccnc(N)n2)s1", "note": "[Dabrafenib (GSK2118436)]", "values": [{"measurement": "pIC50", "setting": "c-Raf", "value": 8.30}, {"measurement": "pIC50", "setting": "B-Raf", "value": "[…]"}, {"measurement": "pIC50", "setting": "B-RafV600E", "value": "[…]"}, {"measurement": "inhibition of growth at 5 µM", "setting": "[1]; [2]", "value": 0.8, "unit": "%"}]}
{"smiles": "CCC(CC)CC1(C(=O)Nc2ccccc2SC(=O)C(C)C)CCCCC1", "note": "[Dalcetrapib (JTT-705)]", "values": [{"measurement": "pIC50", "setting": "rhCETP", "value": 6.70}, {"measurement": "inhibition of growth at 5 µM", "setting": "[1]; [2]", "value": 0.4, "unit": "%"}]}
{"smiles": "NC(=O)N1CCC(CC(=O)N2CCC([C@H]3c4ncc(Br)cc4CCc4cc(Cl)cc(Br)c43)CC2)CC1", "note": "[Lonafarnib (SCH66336)]", "values": [{"measurement": "pIC50", "setting": "FPTase (N-ras)", "value": 8.55}, {"measurement": "pIC50", "setting": "FPTase (K-ras-4B)", "value": 8.28}, {"measurement": "pIC50", "setting": "FPTase (H-ras)", "value": 8.72}, {"measurement": "inhibition of growth at 5 µM", "setting": "[1]; [2]", "value": 0.4, "unit": "%"}]}
{"smiles": "CCN1C[C@@H](C)n2c(c(O)c3c(=O)n(Cc4ccc(F)c(Cl)c4)nc(C(=O)NC)c32)C1=O", "note": "[MK-2048]", "values": [{"measurement": "pIC50", "setting": "INR263K", "value": 8.82}, {"measurement": "pIC50", "setting": "integrase (IN)", "value": 8.59}, {"measurement": "inhibition of growth at 5 µM", "setting": "[1]; [2]", "value": 1, "unit": "%"}]}
